Test results taken from ChEMBL document CHEMBL5226309, “Synthetic RNA Modulators in Drug Discovery” (J Med Chem, 2021).
Values belong to the compound of their own block, whether it stands above or below them.

Key:
[1] = Inhibition of 5'FAM-labeled and 3'DAB-labeled Precursor microRNA-372 (unknown origin) assessed as inhibition of Dicer-induced pre-miR-372 cleavage by measuring fluorescence incubated for 30 min in presence of human recombinant Dicer by FRET Dicer assay
[2] = Inhibition of 5'FAM-labeled and 3'DAB-labeled Precursor microRNA-373 (unknown origin) assessed as inhibition of Dicer-induced pre-miR-373 cleavage by measuring fluorescence incubated for 30 min in presence of human recombinant Dicer by FRET Dicer assay
[3] = Upregulation of miR-122 expression in human Huh-7 cells at 10 uM incubated for 48 hrs by RT-PCR analysis relative to control; assay type: functional
[4] = Downregulation of alpha-Synuclein level in human SH-SY5Y cells at 5 uM relative to control; assay type: functional
AGS [5] = experiment: Antiproliferative activity against human AGS cells assessed as reduction in cell viability at 25 uM measured after 4 days by CellTiter96 assay relative to control; assay type: functional; conditions: 96 h, time 4 day
AGS [6] = experiment: Inhibition of miR-21 in human AGS cells assessed as decrease in pre-miR-21 level relative to control; assay type: cell-based; conditions: dose or concentration not given here
[7] = Inhibition of miR-21 in human AGS cells assessed as decrease in pre-miR-21 level; assay type: cell-based
[8] = Inhibition of miR-21 (unknown origin) at 1 uM by differential scanning fluorometry analysis relative to control
[9] = Inhibition of miR-21 (unknown origin) by luciferase reporter assays relative to control; conditions: concentration not given here
[10] = Inhibition of miR-21 (unknown origin) maturation assessed as reduction in pre-miR-21 expression at 10 uM by RT-PCR analysis relative to control
[11] = Binding affinity to Precursor microRNA-96 (unknown origin) assessed as dissociation constant
[12] = Inhibition of Precursor microRNA-96 (unknown origin) relative to control; conditions: concentration not given here
[13] = Binding affinity to DNA hairpin (unknown origin) assessed as dissociation constant
HEK293 = experiment: Inhibition of miR-125a in human HEK293 cells relative to control; assay type: cell-based; conditions: dose or concentration not given here
A498 = experiment: Antiproliferative activity against human A498 cells assessed as reduction in cell viability by XTT assay; assay type: functional, cell-based
[14] = Antiproliferative activity against human U87 cells assessed as reduction in cell viability by XTT assay; assay type: functional, cell-based, U-87MG ATCC; conditions: U-87 MG
HeLa [15] = experiment: Inhibition of miR-21 in human HeLa cells assessed as reduction in relative light unit at 10 uM by luciferase reporter assays relative to control; assay type: cell-based
[16] = Induction of mRNA mediated IPRF assessed as increase in frame shifting efficiency at 10 uM relative to control
[17] = Induction of mRNA mediated IPRF assessed as increase in frame shifting efficiency at 10 uM in presence of M2-VPK sequence relative to control
HeLa [18] = experiment: Induction of mRNA mediated IPRF in human HeLa cells assessed as increase in frame shifting efficiency at 10 uM in presence of F-VPK sequence relative to control; assay type: cell-based
HeLa [19] = experiment: Induction of mRNA mediated IPRF in human HeLa cells assessed as increase in frame shifting efficiency at 0.3 uM in presence of M1-FPK sequence relative to control; assay type: cell-based
HeLa [20] = experiment: Induction of mRNA mediated IPRF in human HeLa cells assessed as increase in frame shifting efficiency at 0.3 uM in presence of M2-FPK sequence relative to control; assay type: cell-based
[21] = Inhibition of miR-21 in human MDA-MB-231 cells; assay type: cell-based
MDA-MB-231 = experiment: Inhibition of miR-21 in human MDA-MB-231 cells assessed as decrease in pre-miR-21 level at 50 nM relative to control; assay type: cell-based
A-375 = experiment: Inhibition of miR-21 in human A-375 cells assessed as decrease in pre-miR-21 level at 50 nM relative to control; assay type: cell-based
A549 = experiment: Inhibition of miR-21 in human A549 cells assessed as decrease in pre-miR-21 level at 50 nM relative to control; assay type: cell-based
[22] = molecular target: T1, Muscleblind-like protein 1 (Homo sapiens) (UniProt Q9NR56); experiment: Inhibition of MBNL1 (unknown origin) in human GDM-1 cells assessed as rescue of IR exon splicing defect at 100 pM by PCR analysis relative to control; assay type: cell-based
T1 sequence (whole entry): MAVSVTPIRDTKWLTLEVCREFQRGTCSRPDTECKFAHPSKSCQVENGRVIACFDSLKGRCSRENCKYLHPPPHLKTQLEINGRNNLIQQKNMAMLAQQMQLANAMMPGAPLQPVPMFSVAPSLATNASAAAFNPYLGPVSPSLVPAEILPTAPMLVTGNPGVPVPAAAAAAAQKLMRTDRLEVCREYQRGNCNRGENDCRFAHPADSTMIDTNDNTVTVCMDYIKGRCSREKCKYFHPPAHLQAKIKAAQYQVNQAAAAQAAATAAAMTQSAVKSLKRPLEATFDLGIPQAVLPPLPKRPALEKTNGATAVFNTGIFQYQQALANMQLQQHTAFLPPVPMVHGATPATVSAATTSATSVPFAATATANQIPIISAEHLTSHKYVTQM

IC50 [1]: 1080 nM
IC50 [2]: 1100 nM
SMILES: NC[C@@H]1O[C@H](O[C@H]2[C@@H](O)[C@H](O[C@@H]3[C@@H](O)[C@H](N)C[C@H](N)[C@H]3O[C@H]3O[C@H](CN)[C@@H](O)[C@H](O)[C@H]3N)O[C@@H]2Cn2cc(CCC(=O)Nc3ccc(-c4csc(NC(=O)c5ccc(N)cc5)n4)cc3)nn2)[C@H](N)[C@@H](O)[C@@H]1O

SMILES: CN(C)CCN1C(=O)c2cccc3cc(N)cc(c23)C1=O [AMONAFIDE]
Activity [3]: 450%

SMILES: N#Cc1ccc(Nc2ccc(-c3nc4ccc(C#N)cc4[nH]3)cc2)cc1
Activity [4]: 40%

IC50 [1]: 980 nM
IC50 [2]: 2190 nM
SMILES: NC[C@@H]1O[C@H](O[C@H]2[C@@H](O)[C@H](O[C@@H]3[C@@H](O)[C@H](N)C[C@H](N)[C@H]3O[C@H]3O[C@H](CN)[C@@H](O)[C@H](O)[C@H]3N)O[C@@H]2Cn2cc(CCC(=O)Nc3ccc(-c4csc(NC(=O)c5ccc(Cl)cc5)n4)cc3)nn2)[C@H](N)[C@@H](O)[C@@H]1O
inhibition at 25 µM (AGS [5]): 50%

IC50 [7]: 2420 nM
SMILES: CC(=O)Nc1csc(-c2cccc(NC(=O)CCc3cn(C[C@H]4O[C@@H](O[C@@H]5[C@@H](O)[C@H](N)C[C@H](N)[C@H]5O[C@H]5O[C@H](CN)[C@@H](O)[C@H](O)[C@H]5N)[C@H](O)[C@@H]4O[C@H]4O[C@@H](CN)[C@@H](O)[C@H](O)[C@H]4N)nn3)c2)n1
inhibition (AGS [6]): 100%

inhibition [8]: 90%
SMILES: NC[C@@H]1O[C@H](O[C@H]2[C@@H](O)[C@H](O[C@@H]3[C@@H](O)[C@H](N)C[C@H](N)[C@H]3O[C@H]3O[C@H](CN)[C@@H](O)[C@H](O)[C@H]3N)O[C@@H]2CSCCNC(=O)CCCCCn2cc(COc3ccc4c(c3)C(=O)N(O)C(=O)C4)nn2)[C@H](N)[C@@H](O)[C@@H]1O

inhibition [9]: 11%
inhibition [10]: 78%
SMILES: C#CCNC(=O)c1ccc(/N=N/c2ccccc2)cc1

Kd [11]: 85 nM
inhibition [12]: 50%
Kd [13]: > 50000 nM
SMILES: CCCN(CC(=O)N(CCC)CC(=O)N(CC(N)=O)Cc1cn(CCCNC(=O)CCCOc2c(C(C)(C)C)cc(-c3nc4cc(N5CCN(C)CC5)ccc4[nH]3)cc2C(C)(C)C)nn1)C(=O)CCCOc1cccc(-c2nc3ccc(-c4nc5ccc(N6CCN(C)CC6)cc5[nH]4)cc3[nH]2)c1

SMILES: CCn1cc(C(=O)NCc2ccccc2)c(=O)c2cc(F)c(N3CCNCC3)nc21
inhibition (HEK293): 30%

SMILES: c1cc(C2=NCCN2)ccc1Oc1ccc(-c2nc3ccc(C4=NCCN4)cc3[nH]2)cc1
Activity [4]: 40%

SMILES: C#CCOc1ccc(-c2noc(-c3nnn(-c4cccc(/C(C)=N/O)c4)c3N)n2)cc1
IC50 (A498): 100000 nM
IC50 [14]: 3300 nM
RLU (HeLa [15]): 2.19

SMILES: c1cc(C2=NCCN2)ccc1Oc1ccc(-c2cc3ccc(C4=NCCN4)cc3[nH]2)cc1
Activity [4]: 40%

Activity [16]: 13%
Activity [17]: 15%
SMILES: Cc1ccc2ccc(NC(=O)CCN(CCCCCCCCN(CCC(=O)Nc3ccc4ccc(C)nc4n3)CCC(=O)Nc3ccc4ccc(C)nc4n3)CCC(=O)Nc3ccc4ccc(C)nc4n3)nc2n1
Activity (HeLa [18]): 21%
Activity (HeLa [19]): 0.35%
Activity (HeLa [20]): 0.32%

IC50 [21]: 50 nM
SMILES: CCCN(CC(=O)N(CCC)CC(=O)N(CCC)CC(=O)N(CC(=O)NCCOCCOCCOCCOc1ccc(/C=C2\SC(Nc3ccccc3)=C(C(=O)OCC)C2=O)cc1O)Cc1cn(CCCNC(=O)CCCOc2ccc(-c3nc4ccc(-c5ccc(N6CCN(C)CC6)cc5)cc4[nH]3)cc2)nn1)C(=O)CNCc1cn(CCCNC(=O)CCCOc2ccc(-c3nc4ccc(-c5ccc(N6CCN(C)CC6)cc5)cc4[nH]3)cc2)nn1
inhibition (MDA-MB-231): 50%
inhibition (A-375): 50%
inhibition (A549): 50%

inhibition [22]: 100%
SMILES: C#CC(=O)NCCCCCC(=O)N(CCN(C)C(=O)CCCOc1cccc(-c2nc3ccc(-c4nc5ccc(N6CCN(C)CC6)cc5[nH]4)cc3[nH]2)c1)CC(=O)N(C)[C@@H](C)C(=O)N(C)[C@@H](C)C(=O)N(C)[C@@H](C)C(=O)N(CCCCN(C)C(=O)CCCOc1cccc(-c2nc3ccc(-c4nc5ccc(N6CCN(C)CC6)cc5[nH]4)cc3[nH]2)c1)CC(=O)N(CCCN=[N+]=[N-])CC(N)=O
